Data taken from ChEMBL document CHEMBL5726350, “Histone demethylase inhibitors” (2017).

Legend:
[1] = target: Lysine-specific demethylase 5A (Homo sapiens, UniProt P29375); assay: Enzymatic Assay: The enzymatic assay of Jarid1A activity is based upon Time Resolved-Fluorescence Resonance Energy Transfer (TR-FRET) detection. The ability of test compounds to inhibit the activity of Jarid1A was determined in 384-well plate format under the following reaction conditions: 1 nM Jarid1A, 300 nM H3K4me3-biotin labeled peptide (Anaspec cat #64357), 2 μM alpha-ketoglutaric acid in assay buffer of 50 mM HEPES, pH7.3, 0.005% Brij35, 0.5 mM TCEP, 0.2 mg/ml BSA, 50 μM sodium L-ascorbate, and 2 μM ammonium iron(II) sulfate. Reaction product was determined quantitatively by TR-FRET after the addition of detection reagent Phycolink Streptavidin-allophycocyanin (Prozyme) and Europium-anti-mono- or di-methylated histone H3 lysine 4 (H3K4me1-2) antibody (PerkinElmer) in the presence of 5 mM EDTA in LANCE detection buffer (PerkinElmer) at a final concentration of 25 nM and 1 nM, respectively.The assay reaction was initiated by the following: 2 μl of the mixture of 900 nM H3K4me3-biotin labeled peptide and 6 μM alpha-ketoglutaric acid with 2 μl of 11-point serial diluted inhibitor in 3% DMSO was added to each well of plate, followed by the addition of 2 μl of 3 nM Jarid1A to initiate the reaction.
Chain of Lysine-specific demethylase 5A (P29375 whole entry): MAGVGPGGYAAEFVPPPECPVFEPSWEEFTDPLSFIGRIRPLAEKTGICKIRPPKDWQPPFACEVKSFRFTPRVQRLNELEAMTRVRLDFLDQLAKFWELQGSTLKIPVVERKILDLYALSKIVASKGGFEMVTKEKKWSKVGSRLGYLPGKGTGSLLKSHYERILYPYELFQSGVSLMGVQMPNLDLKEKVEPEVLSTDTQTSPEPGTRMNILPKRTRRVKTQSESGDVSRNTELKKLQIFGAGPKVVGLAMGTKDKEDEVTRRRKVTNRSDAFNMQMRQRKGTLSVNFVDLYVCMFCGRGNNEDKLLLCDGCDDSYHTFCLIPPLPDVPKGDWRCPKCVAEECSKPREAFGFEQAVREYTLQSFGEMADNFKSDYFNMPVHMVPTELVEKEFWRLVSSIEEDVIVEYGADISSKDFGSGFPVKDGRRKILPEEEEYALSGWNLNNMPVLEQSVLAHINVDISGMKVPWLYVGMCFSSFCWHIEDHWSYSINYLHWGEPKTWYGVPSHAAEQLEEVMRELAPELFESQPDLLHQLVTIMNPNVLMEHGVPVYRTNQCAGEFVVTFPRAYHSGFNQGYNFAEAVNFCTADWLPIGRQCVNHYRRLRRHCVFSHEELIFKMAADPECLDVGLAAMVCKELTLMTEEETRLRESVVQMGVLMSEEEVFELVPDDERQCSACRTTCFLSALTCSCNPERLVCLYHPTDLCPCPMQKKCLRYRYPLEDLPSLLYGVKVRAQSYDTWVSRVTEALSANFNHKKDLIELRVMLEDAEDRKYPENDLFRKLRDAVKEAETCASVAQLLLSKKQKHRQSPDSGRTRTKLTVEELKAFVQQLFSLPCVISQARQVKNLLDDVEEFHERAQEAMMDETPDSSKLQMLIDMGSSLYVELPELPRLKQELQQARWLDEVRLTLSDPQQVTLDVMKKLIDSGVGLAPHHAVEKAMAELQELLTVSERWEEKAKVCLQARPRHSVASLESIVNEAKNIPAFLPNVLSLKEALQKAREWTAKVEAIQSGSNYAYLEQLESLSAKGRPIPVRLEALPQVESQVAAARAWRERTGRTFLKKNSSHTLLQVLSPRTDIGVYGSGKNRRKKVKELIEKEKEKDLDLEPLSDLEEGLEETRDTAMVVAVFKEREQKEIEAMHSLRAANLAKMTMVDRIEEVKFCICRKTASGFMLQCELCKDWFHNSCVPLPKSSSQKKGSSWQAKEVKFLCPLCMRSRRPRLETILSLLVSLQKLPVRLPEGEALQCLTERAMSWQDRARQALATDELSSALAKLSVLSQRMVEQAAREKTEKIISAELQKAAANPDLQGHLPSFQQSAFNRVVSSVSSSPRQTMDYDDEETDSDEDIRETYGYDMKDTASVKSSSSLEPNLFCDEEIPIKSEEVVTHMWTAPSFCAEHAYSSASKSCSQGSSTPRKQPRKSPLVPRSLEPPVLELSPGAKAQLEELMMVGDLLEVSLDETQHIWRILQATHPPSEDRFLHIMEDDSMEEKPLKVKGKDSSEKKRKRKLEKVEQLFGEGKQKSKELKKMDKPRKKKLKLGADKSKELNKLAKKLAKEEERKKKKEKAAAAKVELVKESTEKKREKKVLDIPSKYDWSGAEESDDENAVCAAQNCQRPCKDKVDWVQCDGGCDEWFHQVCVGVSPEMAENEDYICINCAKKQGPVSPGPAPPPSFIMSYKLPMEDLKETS

[2] = target: Lysine-specific demethylase 5B (Homo sapiens, UniProt Q9UGL1); assay: Enzymatic Assay: The ability of test compounds to inhibit the activity of Jarid1B was determined in 384-well plate format under the following reaction conditions: 0.8 nM Jarid1B, 300 nM H3K4me3-biotin labeled peptide (Anaspec cat #64357), 2 μM alpha-ketoglutaric acid in assay buffer of 50 mM HEPES, pH7.3, 0.005% Brij35, 0.5 mM TCEP, 0.2 mg/ml BSA, 50 μM sodium L-ascorbate, and 2 μM ammonium iron(II) sulfate. Reaction product was determined quantitatively by TR-FRET after the addition of detection reagent Phycolink Streptavidin-allophycocyanin (Prozyme) and Europium-anti-mono- or di-methylated histone H3 lysine 4 (H3K4me1-2) antibody (PerkinElmer) in the presence of 5 mM EDTA in LANCE detection buffer (PerkinElmer) at a final concentration of 25 nM and 1 nM, respectively.The assay reaction was initiated by the following: 2 μl of the mixture of 900 nM H3K4me3-biotin labeled peptide and 6 μM alpha-ketoglutaric acid with 2 μl of 11-point serial diluted inhibitor in 3% DMSO was added to each well of the plate, followed by the addition of 2 μl of 2.4 nM Jarid1B to initiate the reaction. The reaction mixture was incubated at room temperature for 30 minutes, and terminated by the addition of 6 μl of 5 mM EDTA in LANCE detection buffer containing 50 nM Phycolink Streptavidin-allophycocyanin and 2 nM Europium-anti-H3K4me1-2 antibody.
Chain of Lysine-specific demethylase 5B (Q9UGL1 whole entry): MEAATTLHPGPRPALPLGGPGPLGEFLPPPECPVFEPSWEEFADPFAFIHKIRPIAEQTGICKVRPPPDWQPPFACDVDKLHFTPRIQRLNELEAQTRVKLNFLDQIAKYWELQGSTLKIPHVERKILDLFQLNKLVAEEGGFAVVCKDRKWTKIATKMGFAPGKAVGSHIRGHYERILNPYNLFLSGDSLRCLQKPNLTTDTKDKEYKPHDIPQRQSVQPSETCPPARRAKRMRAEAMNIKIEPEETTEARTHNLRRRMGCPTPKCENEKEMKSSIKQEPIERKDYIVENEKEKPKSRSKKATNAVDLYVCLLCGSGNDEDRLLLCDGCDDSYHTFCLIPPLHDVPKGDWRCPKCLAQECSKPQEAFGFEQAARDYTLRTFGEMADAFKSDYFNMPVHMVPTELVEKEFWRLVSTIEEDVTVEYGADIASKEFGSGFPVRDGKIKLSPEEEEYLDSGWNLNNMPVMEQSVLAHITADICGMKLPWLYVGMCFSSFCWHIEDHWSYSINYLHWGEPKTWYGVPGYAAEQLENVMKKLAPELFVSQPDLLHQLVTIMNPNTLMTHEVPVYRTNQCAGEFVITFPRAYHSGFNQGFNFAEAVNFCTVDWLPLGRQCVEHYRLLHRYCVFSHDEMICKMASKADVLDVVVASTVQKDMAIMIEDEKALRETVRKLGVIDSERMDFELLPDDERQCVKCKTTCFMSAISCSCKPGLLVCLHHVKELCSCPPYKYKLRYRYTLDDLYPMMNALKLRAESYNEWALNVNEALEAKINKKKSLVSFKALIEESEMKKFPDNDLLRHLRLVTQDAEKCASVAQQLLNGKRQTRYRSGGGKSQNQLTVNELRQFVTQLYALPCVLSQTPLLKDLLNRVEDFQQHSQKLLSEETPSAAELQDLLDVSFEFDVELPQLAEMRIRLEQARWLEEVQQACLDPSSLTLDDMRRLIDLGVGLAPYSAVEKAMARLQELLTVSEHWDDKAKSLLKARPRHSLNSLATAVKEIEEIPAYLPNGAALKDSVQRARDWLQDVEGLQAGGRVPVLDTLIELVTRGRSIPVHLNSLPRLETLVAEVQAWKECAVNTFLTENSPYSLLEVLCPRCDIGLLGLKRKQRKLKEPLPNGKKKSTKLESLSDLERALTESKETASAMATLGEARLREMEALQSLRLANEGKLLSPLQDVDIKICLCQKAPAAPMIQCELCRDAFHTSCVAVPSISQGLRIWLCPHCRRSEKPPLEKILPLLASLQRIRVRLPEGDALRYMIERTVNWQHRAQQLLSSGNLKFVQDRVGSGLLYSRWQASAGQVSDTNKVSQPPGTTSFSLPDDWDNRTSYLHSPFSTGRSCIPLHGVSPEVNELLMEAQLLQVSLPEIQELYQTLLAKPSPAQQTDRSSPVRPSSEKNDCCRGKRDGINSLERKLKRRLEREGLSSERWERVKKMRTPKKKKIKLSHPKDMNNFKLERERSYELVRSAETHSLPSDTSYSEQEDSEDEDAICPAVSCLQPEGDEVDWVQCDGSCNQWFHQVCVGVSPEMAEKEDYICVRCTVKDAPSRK

[3] = target: T1, Lysine-specific demethylase 4C (Homo sapiens, UniProt Q9H3R0); assay: Enzymatic Assay: The ability of test compounds to inhibit the activity of JMJD2C was determined in 384-well plate format under the following reaction conditions: 0.3 nM JMJD2C, 300 nM H3K9me3-biotin labeled peptide (Anaspec cat #64360), 2 μM alpha-ketoglutaric acid in assay buffer of 50 mM HEPES, pH7.3, 0.005% Brij35, 0.5 mM TCEP, 0.2 mg/ml BSA, 50 μM sodium L-ascorbate, and 2 μM ammonium iron(II) sulfate. Reaction product was determined quantitatively by TR-FRET after the addition of detection reagent Phycolink Streptavidin-allophycocyanin (Prozyme) and Europium-anti-di-methylated histone H3 lysine 9 (H3K9me2) antibody (PerkinElmer) in the presence of 5 mM EDTA in LANCE detection buffer (PerkinElmer) at a final concentration of 50 nM and 1 nM, respectively.The assay reaction was initiated by the following: 2 μl of the mixture of 900 nM H3K9me3-biotin labeled peptide and 6 μM alpha-ketoglutaric acid with 2 μl of 11-point serial diluted inhibitor in 3% DMSO were added to each well of the plate, followed by the addition of 2 μl of 0.9 nM JMJD2C to initiate the reaction. The reaction mixture was incubated at room temperature for 30 minutes, and terminated by the addition of 6 μl of 5 mM EDTA in LANCE detection buffer containing 100 nM Phycolink Streptavidin-allophycocyanin and 2 nM Europium-anti-H3K9me2 antibody. […]
T1 sequence (Q9H3R0 whole entry): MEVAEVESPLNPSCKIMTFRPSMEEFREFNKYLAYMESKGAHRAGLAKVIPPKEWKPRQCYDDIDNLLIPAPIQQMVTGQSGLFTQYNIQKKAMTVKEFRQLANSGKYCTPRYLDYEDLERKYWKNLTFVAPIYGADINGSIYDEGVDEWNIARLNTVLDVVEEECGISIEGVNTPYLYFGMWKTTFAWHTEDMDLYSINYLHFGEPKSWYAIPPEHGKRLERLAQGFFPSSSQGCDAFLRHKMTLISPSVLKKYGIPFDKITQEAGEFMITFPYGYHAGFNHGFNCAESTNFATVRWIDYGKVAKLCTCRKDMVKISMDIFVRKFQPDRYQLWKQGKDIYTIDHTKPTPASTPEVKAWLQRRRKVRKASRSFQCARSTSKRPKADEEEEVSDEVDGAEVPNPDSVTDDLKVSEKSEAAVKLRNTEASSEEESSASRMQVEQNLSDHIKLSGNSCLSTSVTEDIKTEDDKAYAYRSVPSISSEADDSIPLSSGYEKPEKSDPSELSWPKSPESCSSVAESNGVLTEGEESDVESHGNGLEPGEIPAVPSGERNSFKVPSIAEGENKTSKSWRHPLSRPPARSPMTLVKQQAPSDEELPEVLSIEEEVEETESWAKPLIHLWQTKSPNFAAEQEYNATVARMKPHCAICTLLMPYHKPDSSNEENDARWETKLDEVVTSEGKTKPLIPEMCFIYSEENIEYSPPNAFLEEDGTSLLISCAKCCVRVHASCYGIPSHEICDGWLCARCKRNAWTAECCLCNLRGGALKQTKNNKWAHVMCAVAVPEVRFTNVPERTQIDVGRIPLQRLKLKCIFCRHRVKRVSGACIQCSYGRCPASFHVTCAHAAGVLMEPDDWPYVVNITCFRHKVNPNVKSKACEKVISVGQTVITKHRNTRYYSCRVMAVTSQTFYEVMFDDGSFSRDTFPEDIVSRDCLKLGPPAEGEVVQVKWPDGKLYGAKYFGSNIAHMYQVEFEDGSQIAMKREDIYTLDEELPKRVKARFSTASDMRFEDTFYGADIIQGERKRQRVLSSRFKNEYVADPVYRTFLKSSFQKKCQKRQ

Measured: IC50

CC1(C)CCN(C(=O)c2cc3nccc(C(=O)O)c3[nH]2)CC1
< 100 nM: [1] | [2] | [3]
